# Legend:
# [1] = system: action potential (AP) morphology; conditions: blebbistatin 10 μM used to immobilize tissue; cited from earlier work
# [2] = system: human cardiac slices; assay: Acute vs chronic phenylephrine in cultured human cardiac slices, electrophysiology by optical mapping; format: cell-based; conditions: 3 μM phenylephrine, acute application vs slices cultured 24 hours in drug medium
# Procedure: Utilizing cultured slices and an adult dosage of phenylephrine, a widely used selective α1-adrenergic receptor agonist, a model to study chronic drug effects in human cardiac slices is developed. Slice electrophysiology was first acutely measured using optical mapping after application of 3 μM phenylephrine.
smiles,measurement,setting,value
Cc1ccc2c(c1)C(=O)C1(O)CCN(c3ccccc3)C1=N2 (centres unmarked) [blebbistatin],effects in action potential (AP) morphology,[1],no significant effects
CNC[C@H](O)c1cccc(O)c1 [phenylephrine],"Two electrophysiology parameters, acute vs chronic stimulation modes",[2],substantial difference

# Source: patent publication US12344826B2, “Apparatus and methods for in vitro preclinical human trials” (THE GEORGE WASHINGTON UNIVERSITY, A CONGRESSIONALLY …, priority 2017, dated 2025)
